Values of other authors, collected in patent US6878388B1, “Vanadium compounds for treating proliferative cell disorders” (Parker Hughes Institute, priority 2000, dated 2005).

Columns and labels:
pharyngonasal cancer = conditions: single assay, Sakurai et al. 1995; cited from earlier work
tumor cell growth = conditions: Kopf-Maier et al. 1983; cited from earlier work

## O.O.O=S(=O)([O-])[O-].[O]=[V+2].c1cnc2c(c1)ccc1cccnc12 [[VO(Phen)(H2O)2](SO4), (diaqua)(1,10-phenanthroline)oxovanadium (IV) sulfate]
Pharyngonasal cancer
  activity against pharyngonasal cancer: active

## Vanadocene dichloride [VDC]
Tumor cell growth
  effect on tumor cell growth: arrest tumor cell growth
